Data on twelve molecules can be found in US7956069B2, “Compounds” (AstraZeneca AB, priority 2006, dated 2011).

Molecules are shown by their SMILES.

Experiment [1] has as its target T1, hM3 (human Muscarinic receptor subtype 3) (Homo sapiens, UniProt P20309).
T1 construct: expressed in transfected cells; host or cells: CHO cells (Chinese hamster ovary cells, ATCC)
Description: Human M3 calcium mobilization FLIPR assay. In kind it is cell-based. As to conditions: CHO cells expressing hM3, Ca2+ release. Here is the method: Biological Evaluation Human M1, Rat M1, Human M3 and Human M5 Calcium Mobilization FLIPR™ Assay
The compound activity in the present invention (EC50 or IC50) was measured using a 384 plate-based imaging assay that monitors drug induced intracellular Ca^2+ release in whole cells. Activation of hM1 (human Muscarinic receptor subtype 1, gene bank access NM_000738), rM1 (rat Muscarinic receptor subtype 1, gene bank access NM_080773), hM3 (human Muscarinic receptor subtype 3, gene bank access NM_000740NM_000740) and hM5 (human Muscarinic receptor subtype 5, gene bank access NM_0121258), receptors expressed in CHO cells (Chinese hamster ovary cells, ATCC) was quantified in a Molecular Devices FLIPR II™ instrument as an increase in fluorescent signal. Inhibition of hM3 and hM5 by compounds was determined by the decrease in fluorescent signal in response to 20 nM carbachol activation.
CHO cells were plated in 384-black polylysine coated plate (Costar) at 8000 cells/well/50 μl for 24 hours or 4000 cells/well for 48 hours in a humidified incubator (5% CO2 and 37° C.) in DMEM/F12 medium without selection agent. Prior to the experiment the cell culture medium was removed from the plates by inversion. A loading solution of 30 μl of Hank's balanced salt solution, 10 mM Hepes and 2.5 mM Probenicid at Ph 7.4 (Cat no. 311-520-VL, Wisent) with 2 μM calcium indicator dye (FLUO-3AM, Molecular Probes F14202) was added to each well. Plates were incubated at 37° C. for 60 minutes prior to start the experiment. The incubation was terminated by washing the cells four times in assay buffer, leaving a residual 25 μl buffer per well. Cell plates were then transferred to the FLIPR, ready for compound additions.
The day of experiment, carbachol and compounds were diluted in three-fold concentration range (10 points serial dilution) for addition by FLIPR instrument. For all calcium assays, a baseline reading was taken for 30 seconds followed by the addition of 12.5 μl (25 μl for hM1 and rM1) of compounds, resulting in a total well volume of 37.5 μl (50 μl for hM1 and rM1). Data were collected every 1.6 seconds for 300 seconds. For hM3 and hM5 an additional 12.5 μl of carbachol (20 nM final) was added at 300 seconds. After this addition of carbachol (producing a final volume of 50 μl), the FLIPR continued to collect data every 2 seconds for 240 seconds. The fluorescence emission was read using filter 1 (emission 520-545 nm) by the FLIPR on board CCD camera.
Calcium mobilization output data were calculated as the maximal relative fluorescence unit (RFU) minus the minal value for both compound and agonist reading frame (except for hM1 and rM1 using only the maximal RFU). Data were analyzed using sigmoidal fits of a non-linear curve-fitting program (XLfit version 5.0.6 from ID Business Solutions Limited, Guildford, UK). All EC50 and IC50 values are reported as arithmetic means±standard error of mean of ‘n’ independent experiments.

The next experiment deals with T2, cloned human M4 receptor (Homo sapiens, UniProt P08173).
T2 construct: purchased Perkin-Elmer RBHM4M; host or cells: Chinese hamster ovary cells (CHO)
T2 sequence (P08173 1-479): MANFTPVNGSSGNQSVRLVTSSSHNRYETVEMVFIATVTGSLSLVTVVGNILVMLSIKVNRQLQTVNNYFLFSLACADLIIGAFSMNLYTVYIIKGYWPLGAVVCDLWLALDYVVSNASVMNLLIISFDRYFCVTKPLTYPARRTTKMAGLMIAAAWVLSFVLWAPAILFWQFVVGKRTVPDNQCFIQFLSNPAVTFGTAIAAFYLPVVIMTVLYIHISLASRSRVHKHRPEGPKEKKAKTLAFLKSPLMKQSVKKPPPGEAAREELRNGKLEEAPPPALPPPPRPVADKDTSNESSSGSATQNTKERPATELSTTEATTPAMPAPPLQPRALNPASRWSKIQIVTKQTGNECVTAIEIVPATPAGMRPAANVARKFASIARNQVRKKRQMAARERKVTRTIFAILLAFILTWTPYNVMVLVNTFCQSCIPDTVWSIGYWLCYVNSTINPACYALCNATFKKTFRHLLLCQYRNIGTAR
Put plainly: hM4 receptor GTPγS binding. It is filed as biochemical. As to conditions: CHO membranes, [35S]GTPγS binding. Here is the method: HM4 Receptor GTPγS Binding
Membranes produced from Chinese hamster ovary cells (CHO) expressing the cloned human M4 receptor (human Muscarinic receptor subtype 4, gene bank access NM_000741), were obtained from Perkin-Elmer (RBHM4M). The membranes were thawed at 37° C., passed 3 times through a 23-gauge blunt-end needle, diluted in the GTPγS binding buffer (50 mM Hepes, 20 mM NaOH, 100 mM NaCl, 1 mM EDTA, 5 mM MgCl2, pH 7.4, 100 μM DTT). The EC50, IC50 and Emax of the compounds of the invention were evaluated from 10-point dose-response curves (three fold concentration range) done in 60 μl in 384-well non-specific binding surface plate (Corning). Ten microliters from the dose-response curves plate (5× concentration) were transferred to another 384 well plate containing the following: 10 μg of hM4 membranes, 500 μg of Flashblue beads (Perkin-Elmer) and GDP in a 25 μl volume. An additional 15 μl containing 3.3× (55000 dpm) of GTPγ^35S (0.4 nM final) were added to the wells resulting in a total well volume of 50 μl. Basal and maximal stimulated [^35S]GTPγS binding were determined in absence and presence of 30 μM of acetylcholine agonist. The membranes/beads mix were pre-incubated for 15 minutes at room temperature with 40 μM GDP prior to distribution in plates (20 μM final). The reversal of acetylcholine-induced stimulation (10 μM final) of [^35S]GTPγS binding was used to assay the antagonist properties (IC50) of the compounds. The plates were incubated for 60 minutes at room temperature with shaking, then centrifuged at 2000 rpm for 5 minutes. The radioactivity (cpm) were counted in a Trilux (Perkin-Elmer).
Values of EC50, IC50 and Emax were obtained using sigmoidal fits of a non-linear curve-fitting program (XLfit version 5.0.6 from ID Business Solutions Limited, Guildford, UK) of percent stimulated [^35S]GTPγS binding vs. log(molar ligand).
All EC50 and IC50 values are reported as arithmetic means±standard error of mean of ‘n’ independent experiments. […] The IC50 was the concentration of the compound of the invention at which 50% inhibition of acetylcholine [^35S]GTPγS binding stimulation has been observed.

T1 sequence (P20309 whole entry): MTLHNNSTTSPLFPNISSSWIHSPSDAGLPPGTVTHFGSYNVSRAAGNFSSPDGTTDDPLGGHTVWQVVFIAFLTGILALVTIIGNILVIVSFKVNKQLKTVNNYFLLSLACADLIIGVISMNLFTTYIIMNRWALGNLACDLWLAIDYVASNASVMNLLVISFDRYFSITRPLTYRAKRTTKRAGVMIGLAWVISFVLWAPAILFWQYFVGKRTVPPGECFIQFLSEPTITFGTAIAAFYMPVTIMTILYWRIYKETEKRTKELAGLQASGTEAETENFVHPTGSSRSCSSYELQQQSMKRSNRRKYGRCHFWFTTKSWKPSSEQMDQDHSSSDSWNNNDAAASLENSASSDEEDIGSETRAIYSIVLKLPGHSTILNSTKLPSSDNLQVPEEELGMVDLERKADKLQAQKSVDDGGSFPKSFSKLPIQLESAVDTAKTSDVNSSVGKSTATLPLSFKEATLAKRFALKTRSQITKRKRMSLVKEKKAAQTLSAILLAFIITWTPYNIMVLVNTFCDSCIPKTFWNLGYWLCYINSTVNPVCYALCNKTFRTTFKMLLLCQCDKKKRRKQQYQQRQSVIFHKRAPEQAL

`CCOC(=O)N1CCC(N2CCC(N3C(=O)N[C@H]4CCCC[C@@H]43)CC2)CC1`: the values for the EC50 (in experiment [1]; on cloned human M4 receptor) were 2.5 µM and 0.33 µM, respectively.

With `CCOC(=O)N1CC[C@H](N2CCC(N3C(=O)N[C@H]4CCCC[C@@H]43)CC2)C1`, the EC50 in experiment [1] is greater than 40 µM; at cloned human M4 receptor, 9.4 µM.

Consider `COc1ccccc1C(=O)N1CCC(N2CCC(N3C(=O)N[C@@H]4CCCC[C@H]43)CC2)CC1`, for which the EC50 is greater than 40 µM in experiment [1] and greater than 30 µM on cloned human M4 receptor.

With `CC(C)OC(=O)N1CCC(N2CCC(N3C(=O)N[C@H]4CCCC[C@@H]43)CC2)CC1`, the EC50 is greater than 40 µM in experiment [1] and 1.3 µM on cloned human M4 receptor.

As to `CC(C)OC(=O)N1CCC(N2CCC(N3C(=O)N[C@@H]4CCCC[C@@H]43)CC2)CC1`, the concentration for a half-maximal effect (EC50) in experiment [1] was greater than 40 µM; at cloned human M4 receptor, 4.5 µM.

Take `O=C1CCCN1CCC(=O)N1CCC(N2CCC(N3C(=O)N[C@H]4CCCC[C@@H]43)CC2)CC1`: the EC50 in experiment [1] was greater than 40 µM; on cloned human M4 receptor, 5.1 µM.

Take `O=C(C1CC1)N1CCC(N2CCC(N3C(=O)N[C@@H]4CCCC[C@H]43)CC2)CC1`: the concentration giving a half-maximal response (EC50) is greater than 40 µM in experiment [1] and greater than 30 µM on cloned human M4 receptor.

On to `O=C1CCCN1CCC(=O)N1CCC(N2CCC(N3C(=O)N[C@@H]4CCCC[C@H]43)CC2)CC1`, for which the figures for the concentration for a half-maximal effect (EC50) (in experiment [1]; at cloned human M4 receptor) were 5.4 µM and greater than 30 µM, respectively.

As to `O=C(C1CCCC1)N1CCC(N2CCC(N3C(=O)N[C@H]4CCCC[C@@H]43)CC2)CC1`, the EC50 is greater than 40 µM in experiment [1] and greater than 30 µM on cloned human M4 receptor.

On to `CN1C(=O)N(C2CCN(C3CCN(C(=O)C4CC4)CC3)CC2)[C@H]2CCCC[C@@H]21`, for which the 50% effective concentration (EC50) in experiment [1] was greater than 40 µM; at cloned human M4 receptor it was greater than 30 µM.

Consider `CC(C)OC(=O)N1CCC(N2CCC(N3C(=O)C[C@H]4CCCC[C@@H]43)CC2)CC1`, for which the EC50 in experiment [1] is greater than 40 µM; at cloned human M4 receptor, 4.2 µM.

At cloned human M4 receptor, `O=C(OCCF)N1CCC(N2CCC(N3C(=O)N[C@H]4CCCC[C@@H]43)CC2)CC1` gave an EC50 of 1.1 µM.
